Assay results taken from the NIST ThermoML archive (doi:10.1021/je900669t).
± gives the expanded uncertainty stated by the source.

Assays:
[1] = refractive index (Na D-line) (dimensionless); conditions: 293.15 K; 101.33 kPa; Liquid; Standard Abbe refractometry
[2] = Liquid; for mass density: 298.15 K, 101.33 kPa; for Normal boiling temperature: Ebulliometric method (Recirculating still)

refractive index [1]	mass density [2]	Normal boiling temperature [2]	Structure (SMILES)
1.4489 ± 0.0005	971.7 ± 1.4 kg/m3	140.5 ± 0.2 °C	CC(=O)CC(C)=O [2,4-pentanedione]
1.3715 ± 0.0005	1046.9 ± 1.6 kg/m3	118.29 ± 0.2 °C	CC(=O)O [acetic acid]
1.4259 ± 0.0005	779.6 ± 7.6 kg/m3	80.8 ± 0.2 °C	C1CCCCC1 [cyclohexane]
